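GI50 = concentration required for 50% inhibition of growth. TGI is the concentration that stops growth completely.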
Experiments:
Assay in all cases: NCI-60 cell line screen, 384-well format
NCI-H23 lung = test system: NCI-H23 lung
SF-295 CNS = test system: SF-295 CNS
RPMI-8226 leukemia = test system: RPMI-8226 leukemia
DU-145 prostate = test system: DU-145 prostate
ACHN renal = test system: ACHN renal
SF-268 CNS = test system: SF-268 CNS
HCT-15 colon = test system: HCT-15 colon
NCI-H522 lung = test system: NCI-H522 lung
MDA-MB-468 breast = test system: MDA-MB-468 breast
MALME-3M melanoma = test system: MALME-3M melanoma
TK-10 renal = test system: TK-10 renal
OVCAR-5 ovarian = test system: OVCAR-5 ovarian
HOP-92 NSCLC = test system: HOP-92 NSCLC
SR leukemia = test system: SR leukemia
NCI-H322M lung = test system: NCI-H322M lung
EKVX NSCLC = test system: EKVX NSCLC
SK-MEL-28 melanoma = test system: SK-MEL-28 melanoma
A498 renal = test system: A498 renal
IGROV1 ovarian = test system: IGROV1 ovarian
HL-60(TB) leukemia = test system: HL-60(TB) leukemia
OVCAR-4 ovarian = test system: OVCAR-4 ovarian
HT29 colon = test system: HT29 colon
T-47D breast = test system: T-47D breast
SF-539 CNS = test system: SF-539 CNS
U251 glioblastoma = test system: U251 glioblastoma
UACC-257 melanoma = test system: UACC-257 melanoma
MOLT-4 leukemia = test system: MOLT-4 leukemia
SW-620 colon = test system: SW-620 colon
SK-MEL-2 melanoma = test system: SK-MEL-2 melanoma
UACC-62 melanoma = test system: UACC-62 melanoma
CCRF-CEM leukemia = test system: CCRF-CEM leukemia
M14 melanoma = test system: M14 melanoma
COLO 205 colon = test system: COLO 205 colon
RXF 393 renal = test system: RXF 393 renal
HOP-62 NSCLC = test system: HOP-62 NSCLC
MDA-MB-435 melanoma = test system: MDA-MB-435 melanoma
MCF7 breast = test system: MCF7 breast
SNB-19 CNS = test system: SNB-19 CNS
SN12C renal = test system: SN12C renal
BT-549 breast = test system: BT-549 breast
HS 578T breast = test system: HS 578T breast
NCI-H460 NSCLC = test system: NCI-H460 NSCLC
PC-3 prostate = test system: PC-3 prostate
A549 NSCLC = test system: A549 NSCLC
SNB-75 CNS = test system: SNB-75 CNS
SK-OV-3 ovarian = test system: SK-OV-3 ovarian
KM12 colon = test system: KM12 colon
SK-MEL-5 melanoma = test system: SK-MEL-5 melanoma
CAKI-1 renal = test system: CAKI-1 renal
HCC-2998 colon = test system: HCC-2998 colon
MDA-MB-231 breast = test system: MDA-MB-231 breast
OVCAR-8 ovarian = test system: OVCAR-8 ovarian
NCI/ADR-RES ovarian = test system: NCI/ADR-RES ovarian
786-0 renal = test system: 786-0 renal
OVCAR-3 ovarian = test system: OVCAR-3 ovarian
NCI-H226 lung = test system: NCI-H226 lung

Nc1nc(F)nc2c1ncn2C1OC(CO)C(O)C1O (configuration not stated)
GI50 (NCI-H23 lung): 3.55 µM | TGI (NCI-H23 lung): 15.7 µM | GI50 (SF-295 CNS): 76.2 µM | TGI (SF-295 CNS): > 100 µM | GI50 (RPMI-8226 leukemia): 45.1 µM | TGI (RPMI-8226 leukemia): > 100 µM | GI50 (DU-145 prostate): 15.5 µM | TGI (DU-145 prostate): 57.5 µM | GI50 (ACHN renal): 21.7 µM | TGI (ACHN renal): 48.5 µM | GI50 (SF-268 CNS): 19.8 µM | TGI (SF-268 CNS): 54.7 µM | GI50 (HCT-15 colon): 32.2 µM | TGI (HCT-15 colon): > 100 µM | GI50 (NCI-H522 lung): 4.68 µM | TGI (NCI-H522 lung): 36.9 µM | GI50 (MDA-MB-468 breast): 26.5 µM | TGI (MDA-MB-468 breast): 82.8 µM | GI50 (MALME-3M melanoma): 1810 nM | TGI (MALME-3M melanoma): 8.06 µM | GI50 (TK-10 renal): > 100 µM | TGI (TK-10 renal): > 100 µM | GI50 (OVCAR-5 ovarian): 34.2 µM | TGI (OVCAR-5 ovarian): > 100 µM | GI50 (HOP-92 NSCLC): 7.81 µM | TGI (HOP-92 NSCLC): 56.8 µM | GI50 (SR leukemia): > 100 µM | TGI (SR leukemia): > 100 µM | GI50 (NCI-H322M lung): > 100 µM | TGI (NCI-H322M lung): > 100 µM | GI50 (EKVX NSCLC): > 100 µM | TGI (EKVX NSCLC): > 100 µM | GI50 (SK-MEL-28 melanoma): 3.11 µM | TGI (SK-MEL-28 melanoma): 15.2 µM | GI50 (A498 renal): 19.4 µM | TGI (A498 renal): 73.7 µM | GI50 (IGROV1 ovarian): 44.8 µM | TGI (IGROV1 ovarian): > 100 µM | GI50 (HL-60(TB) leukemia): 2120 nM | TGI (HL-60(TB) leukemia): 3.75 µM | GI50 (OVCAR-4 ovarian): > 100 µM | TGI (OVCAR-4 ovarian): > 100 µM | GI50 (HT29 colon): 81.4 µM | TGI (HT29 colon): > 100 µM | GI50 (T-47D breast): 34.9 µM | TGI (T-47D breast): > 100 µM | GI50 (SF-539 CNS): 59 µM | TGI (SF-539 CNS): > 100 µM | GI50 (U251 glioblastoma): 36.7 µM | TGI (U251 glioblastoma): > 100 µM | GI50 (UACC-257 melanoma): 50.8 µM | TGI (UACC-257 melanoma): > 100 µM | GI50 (MOLT-4 leukemia): 1150 nM | TGI (MOLT-4 leukemia): 2370 nM | GI50 (SW-620 colon): 49.8 µM | TGI (SW-620 colon): > 100 µM | GI50 (SK-MEL-2 melanoma): 4.7 µM | TGI (SK-MEL-2 melanoma): 16.6 µM | GI50 (UACC-62 melanoma): 28.8 µM | TGI (UACC-62 melanoma): 96.8 µM | GI50 (CCRF-CEM leukemia): 316 nM | TGI (CCRF-CEM leukemia): 1230 nM | GI50 (M14 melanoma): 2600 nM | TGI (M14 melanoma): 8.62 µM | GI50 (COLO 205 colon): 11 µM | TGI (COLO 205 colon): 37.3 µM | GI50 (RXF 393 renal): 44.2 µM | TGI (RXF 393 renal): > 100 µM | GI50 (HOP-62 NSCLC): 5.5 µM | TGI (HOP-62 NSCLC): 21 µM | GI50 (MDA-MB-435 melanoma): 12.4 µM | TGI (MDA-MB-435 melanoma): > 100 µM | GI50 (MCF7 breast): 26.6 µM | TGI (MCF7 breast): > 100 µM | GI50 (SNB-19 CNS): 7.28 µM | TGI (SNB-19 CNS): 42.8 µM | GI50 (SN12C renal): 6.16 µM | TGI (SN12C renal): 24.6 µM | GI50 (BT-549 breast): 12 µM | TGI (BT-549 breast): 46.1 µM | GI50 (HS 578T breast): 30.6 µM | TGI (HS 578T breast): > 100 µM | GI50 (NCI-H460 NSCLC): 16.5 µM | TGI (NCI-H460 NSCLC): 35.8 µM | GI50 (PC-3 prostate): 10.8 µM | TGI (PC-3 prostate): > 100 µM | GI50 (A549 NSCLC): 29.8 µM | TGI (A549 NSCLC): > 100 µM | GI50 (SNB-75 CNS): 23.1 µM | TGI (SNB-75 CNS): > 100 µM | GI50 (SK-OV-3 ovarian): 10.1 µM | TGI (SK-OV-3 ovarian): 44.1 µM | GI50 (KM12 colon): 26.4 µM | TGI (KM12 colon): > 100 µM | GI50 (SK-MEL-5 melanoma): 14.1 µM | TGI (SK-MEL-5 melanoma): 43.4 µM | GI50 (CAKI-1 renal): 17.4 µM | TGI (CAKI-1 renal): 50.3 µM | GI50 (HCC-2998 colon): 2110 nM | TGI (HCC-2998 colon): 8.44 µM | GI50 (MDA-MB-231 breast): 6.96 µM | TGI (MDA-MB-231 breast): 47.9 µM | GI50 (OVCAR-8 ovarian): 1980 nM | TGI (OVCAR-8 ovarian): 4.61 µM | GI50 (NCI/ADR-RES ovarian): 2340 nM | TGI (NCI/ADR-RES ovarian): 6.41 µM | GI50 (786-0 renal): 17.8 µM | TGI (786-0 renal): 56 µM | GI50 (OVCAR-3 ovarian): 7.9 µM | TGI (OVCAR-3 ovarian): > 100 µM | GI50 (NCI-H226 lung): 95.9 µM | TGI (NCI-H226 lung): > 100 µM

From PubChem BioAssay (NCI)
